Results taken from PubChem BioAssay AID720605 (Broad Institute, 2013).

Test system: U-251 glioblastoma viability, Alamar Blue, 8-48 h
Assay: U-251 glioblastoma cell viability loss, dose response, HRAS target identification, Alamar Blue fluorescence, 8/24/48 h, dry powder (AID 720605)

SMILES | AC50 (measured here: 8 h treatment) [µM] | AC50 (measured here: 24 h treatment) [µM] | AC50 (measured here: 48 h treatment) [µM]
C#CCCCC(=O)NCCOCCOCCOc1ccc(N(C(=O)CCl)C(C(=O)NCCc2ccccc2)c2cccs2)cc1Cl (stereo not given) | 1.99 | 0.92 | 0.855
Cc1onc(C(=O)N2CCN(C(c3ccc(Cl)cc3)c3ccc(Cl)cc3)CC2)c1[N+](=O)[O-] | 0.383 | 0.359 | 0.293
COC(=O)c1ccc([C@@H]2c3[nH]c4ccccc4c3C[C@@H](C(=O)OC)N2C(=O)CCl)cc1 | 0.0144 | 0.0427 | 0.0454
CC(C)(C)OC(=O)NCCOCCOCCOc1ccc(N(C(=O)CCl)C(C(=O)NCCc2ccccc2)c2cccs2)cc1Cl (stereo not given) | 0.297 | 0.229 | 0.33
COc1ccc(N(C(=O)CCl)C(C(=O)NCCc2ccccc2)c2cccs2)cc1Cl (stereo not given) | 0.0663 | 0.0543 | 0.051
